Values belong to the compound of their own block, whether it stands above or below them.
Tests used:
[1] = tested on: MelanoDerm™ tissues (MEL-300-B); experiment: MelanoDerm quantification of melanin content; type: cell-based, human; conditions: 14 days; for Melanin content versus Kojic acid at 2%: 100 μM, Student t test
Method: (§1) The MelanoDerm™ cultures from MatTek Corporation (Ashland, Massachusetts, USA) are a pigmented 3D-Living Skin Equivalent model. MEL-300 tissues are obtained by seeding keratinocytes with melanocytes. MEL-300-B cultures contain melanocytes derived from a donor tissue and are used for the evaluation of skin lightening potential. MEL-300-B were prepared in a long life maintenance medium (EPI-100-LLMM available from the MatTek Corporation) and cultured for a total of 14 days. A total of four tissue replicates (n=4) was used per group.
(§2) Untreated tissue was used as negative control. Maintenance medium was refreshed every 2 days.
(§3) Urolithin A was applied to the samples by addition to the maintenance medium at a final concentration of 50 and 100 µM, prepared from a stock solution at 50 mM in DMSO. A vehicle control was prepared using DMSO at 0.2% in maintenance medium. Maintenance medium added in Urolithin A or DMSO was refreshed every 2 days. Kojic acid was used as a positive control at 2% in 50:50 butylene glycol: water and applied topically (i.e. on the stratum corneum, the outermost layer of the epidermis, of the MelanoDerm™ sample). Kojic acid is a well-known inhibitor of tyrosinase, a key enzyme that is responsible for melanogenesis in melanoma and melanocytes, and is used to treat hyperpigmentation, melasma, and wrinkle in cosmetics products. Every 2 days, tissues were rinsed with sterile PBS to remove Kojic acid prior to adding a fresh preparation of kojic acid at 2% in 50:50 butylene glycol: water. Maintenance medium was changed at the same time. • a. At day 14, all tissues were photographed by top view for macroscopic analysis of pigmentation using a Nikon Eclipse Ti microscope. […] It is also visible that tissues treated with Urolithin A at 50 and 100 μM are as light as the tissues treated with the positive control Kojic acid applied topically at 2%. • b. The lightness of the samples was assessed by measuring the L value using the Konica Minolta Color Spectrophotometer (CM-700d) at day 0, 4, 7, 11 and 14. The L value tells how light or dark the color is, with black corresponding to L=0 and white to L=100. FIG. 3 represents the L values measured in the difference samples. […] At the end of the treatment, the L-values of tissues treated with Urolithin A and Kojic acid are equivalent, confirming what is visible in FIG. 2. […] Three tissues per group were used for the quantification of melanin. Tissues were first incubated in PBS to remove any phenol red remaining from the maintenance medium. Tissues were placed in a 1.7 ml microfuge tube with 500 μl of Solvable™ (Tissue and Gel Solubilizer 0.5 M-Packard BioScience Co. Catalogue No. 6NE9100) and incubated at 95° C. overnight along with melanin standards. Melanin standards were prepared by dissolving melanin (Sigma catalog number M8631) in Solvable™ at 1 mg/ml to make stock solution.
Following overnight incubation, samples were centrifuged at 13000 rpm for 5 minutes to pellet any insoluble material. 200 μl of each sample were transferred to a 96-well plate and read at 490 nm. FIG. 4 represents the results for the melanin content expressed in μg. Statistical significance was performed using a one-way ANOVA, followed by a Dunnett post-hoc test for multiple comparison of each group against the negative control.

[2] = tested on: EpiDerm™ tissues (EPI-200, normal human-derived epidermal keratinocytes); experiment: EpiDerm skin cell viability (MTT) assay; type: cell-based; conditions: 96 hours; for Relative cell viability (% of negative control): basolateral, 90% = irritant threshold
Method: Pre-screen treatment conditions: A good skin lightener should inhibit melanin synthesis but not cause cytotoxicity to the tissue. The impact of Urolithin A on skin cells viability was performed with the EpiDerm tissue (EPI-200). The reconstructed human epidermal model EpiDerm™ (EPI-200, MatTek, Ashland, USA) consists of normal human-derived epidermal keratinocytes, which have been cultured to form a multilayered highly differentiated model of the human epidermis.
Tissues were grown in maintenance medium (EPI-100-LLMM available from the MatTek Corporation). Treatment was done basolaterally, i.e. with the test compounds dissolved in the maintenance medium, for a total duration of 96 hours. Two EpiDerm™ tissues (n=2) were used per condition, which were 1) water, 2) DMSO 0.5%, 3) Urolithin A 25 μM, 4) Urolithin A 50 μM and 5) Urolithin A 100 μM. Maintenance medium added or not in Urolithin A or DMSO was refreshed at 48 hours.
Cell viability is measured by dehydrogenase conversion of MTT [(3-4,5-dimethylthiazole-2-yl) 2,5-diphenyltetrazoliumbromide], present in cell mitochondria, into a blue formazan salt that is quantitatively measured after extraction from tissues. The MTT assay was performed by transferring the tissues to 24-well plates containing MTT medium (1 mg/ml). After a 3 hr MTT incubation, the blue formazan salt formed by cellular mitochondria was extracted with 2.0 ml/tissue of isopropanol (extractant solution, part #MTT-100-EXT) and the optical density of the extracted formazan was determined using a spectrophotometer at 570 nm. Relative cell viability was calculated for each tissue as % of the mean of the negative control tissues.

[3] = tested on: MelanoDerm™ tissues (MEL-300-B); experiment: MelanoDerm macroscopic analysis of pigmentation (top view); type: cell-based, human; conditions: day 14
Method: as §1, §2
as §3, with “Melanin standards were prepared by dissolving melanin (Sigma catalog number M8631) in Solvable™ at 1 mg/ml to make stock solution.” left out

[4] = tested on: MelanoDerm™ tissues (MEL-300-B); experiment: MelanoDerm lightness, L value by color spectrophotometer; type: cell-based, human; conditions: for L value versus negative control group: from day 4 until day 14
Method: as §1, §2, §3

[5] = Particle size distribution after micronisation (Malvern Mastersizer 2000); type: physicochemical; conditions: micronized, spiral jet mill
Source text: Urolithin A was micronized using an MC50 Spiral 20 Jetmill (Valortecs SAS, Blodelsheim, France), using filtered nitrogen, with a feed rate of 240 g/hr, a Venturi pressure of 12 bar, and a mill pressure of 12 bar. Urolithin A was micronized to give urolithin A having a particle size distribution of D90=9 μm to 15 μm and D50=2 to 9 μm. The actual particle size distribution was D90=11.5 μm, D50=3.9 μm, D10=0.7 μm, measured using a Malvern Mastersizer 2000.

[6] = Solubility (water; topical cream); type: physicochemical; conditions: topical cream including lipophilic excipients, e.g. an oil and/or a medium chain triglyceride
rodents = conditions: cited from earlier work

SMILES: O=c1cc(CO)occ1O [Kojic acid, reference compound]
Decrease of melanin content compared to the negative control ([1]; 2% in 50:50 butylene glycol:water, applied topically): 62%

Particle size D10 [5]: 0.7 μm
Particle size D50 [5]: 3.9 μm
Particle size D90 [5]: 11.5 μm
Solubility in topical cream composition [6]: especially soluble
SMILES: O=c1oc2cc(O)ccc2c2ccc(O)cc12 [Urolithin A]
Relative cell viability (% of negative control) ([2]; Urolithin A 25 μM): higher than 90%
Relative cell viability (% of negative control) ([2]; Urolithin A 50 μM): higher than 90%
Relative cell viability (% of negative control) ([2]; Urolithin A 100 μM): higher than 90%
Effect on skin cell viability / cytotoxicity ([2]; at the tested concentrations (25, 50, 100 μM)): does not impair skin cell viability
Macroscopic pigmentation versus negative control and DMSO 0.2% group ([3]; 50 μM in maintenance medium): consistently lighter
Macroscopic pigmentation versus positive control Kojic acid 2% topical ([3]; 50 μM in maintenance medium): as light as
Macroscopic pigmentation versus negative control and DMSO 0.2% group ([3]; 100 μM in maintenance medium): consistently lighter
Macroscopic pigmentation versus positive control Kojic acid 2% topical ([3]; 100 μM in maintenance medium): as light as
Speed of tissue-lightening effect versus Kojic acid ([4]; 50 μM): faster tissue-lightening effects
L value versus negative control group ([4]; 50 μM): significantly higher
Speed of tissue-/skin-lightening effect versus Kojic acid ([4]; 100 μM): faster tissue-lightening effects
L value versus negative control group ([4]; 100 μM): significantly higher
Speed of tissue-/skin-lightening effect versus Kojic acid ([4]; 100 μM, listed as urolithin A): faster skin-lightening effects
L value versus tissues treated with Kojic acid ([4]; Urolithin A 50 or 100 μM, day 4 and 7): higher L value
L value versus tissues treated with Kojic acid ([4]; end of the treatment (day 14)): equivalent
Decrease of melanin content compared to the negative control ([1]; 50 μM in maintenance medium): 65%
Decrease of melanin content compared to the negative control ([1]; 100 μM in maintenance medium): 67%
Melanin content versus Kojic acid at 2% [1]: significantly lower
Melanin content versus Kojic acid at 2% ([1]; listed as urolithin A): greater decrease in melanin content
Mitophagy (rodents; in vivo): induces mitophagy
Lifespan (rodents; rodents): increases lifespan

Source: patent publication US20250381118A1, “SKIN TREATMENT METHODS” (Amazentis SA, priority 2017, published 2025)
